Source: ChEMBL document CHEMBL5230132, “Cannabinoid Receptor Subtype 2 (CB2R) in a Multitarget Approach: Perspective of an Innovative Strategy in Cancer and Neurodegeneration” (J Med Chem, 2020)

What was measured:
Cannabinoid receptor 1 [1] = biological target: T1, Cannabinoid receptor 1 (Homo sapiens, UniProt P21554); assay: Displacement of [3H]CP55940 from human CB1 receptor
Cannabinoid receptor 2 [2] = biological target: T2, Cannabinoid receptor 2 (Homo sapiens, UniProt P34972); assay: Displacement of [3H]CP55940 from human CB2 receptor
T2 sequence (P34972 whole entry): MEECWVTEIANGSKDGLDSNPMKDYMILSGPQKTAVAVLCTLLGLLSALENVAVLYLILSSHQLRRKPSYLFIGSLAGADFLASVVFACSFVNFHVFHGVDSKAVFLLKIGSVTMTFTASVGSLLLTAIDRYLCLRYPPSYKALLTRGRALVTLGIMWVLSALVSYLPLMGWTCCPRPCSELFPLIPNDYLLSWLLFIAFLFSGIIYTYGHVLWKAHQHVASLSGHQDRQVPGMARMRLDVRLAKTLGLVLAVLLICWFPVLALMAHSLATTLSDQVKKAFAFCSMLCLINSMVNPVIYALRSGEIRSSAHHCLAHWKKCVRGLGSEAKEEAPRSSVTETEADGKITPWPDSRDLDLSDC

Cannabinoid receptor 1 [3] = biological target: T1, Cannabinoid receptor 1; assay: Binding affinity to human CB1 receptor stably expressing CHO cells assessed as inhibition constant by radioligand binding assay; type: cell-based
Cannabinoid receptor 2 [4] = biological target: T2, Cannabinoid receptor 2; assay: Displacement of [3H]CP55940 from CB2 receptor (unknown origin) expressed in HEK cell membrane measured after 90 mins by competitive binding assay; type: cell membranes
Cannabinoid receptor 1 [5] = biological target: Cannabinoid receptor 1 (Rattus norvegicus, UniProt P20272); assay: Displacement of [3H]CP55940 from rat brain membrane CB1 receptor assessed as inhibition constant incubated for 1 hr by liquid scintillation counting method; type: cell membranes
Cannabinoid receptor 1 (Rattus norvegicus, UniProt P20272), sequence (P20272 whole entry): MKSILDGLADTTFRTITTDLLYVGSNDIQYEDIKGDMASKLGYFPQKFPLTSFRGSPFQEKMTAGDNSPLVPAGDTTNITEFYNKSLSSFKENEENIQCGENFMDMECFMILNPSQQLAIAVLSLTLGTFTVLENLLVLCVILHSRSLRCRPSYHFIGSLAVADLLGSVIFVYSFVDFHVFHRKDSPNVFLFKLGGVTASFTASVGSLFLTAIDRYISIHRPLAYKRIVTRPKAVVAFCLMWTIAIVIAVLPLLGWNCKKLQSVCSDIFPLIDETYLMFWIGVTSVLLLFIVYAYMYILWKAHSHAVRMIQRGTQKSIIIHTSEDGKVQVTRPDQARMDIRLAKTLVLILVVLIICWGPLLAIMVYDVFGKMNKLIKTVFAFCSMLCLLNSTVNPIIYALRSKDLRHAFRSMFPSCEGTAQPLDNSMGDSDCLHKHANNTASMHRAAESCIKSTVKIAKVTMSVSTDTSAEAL

Cannabinoid receptor 2 [6] = biological target: T2, Cannabinoid receptor 2; assay: Displacement of [3H]CP55940 from human CB2 receptor expressed in HEK293 cell membrane assessed as inhibition constant incubated for 1 hr by liquid scintillation counting method; type: cell membranes
Cannabinoid receptor 1 [7] = biological target: T1, Cannabinoid receptor 1; assay: Displacement of [3H]CP55940 from human CB1 receptor stably expressed in CHO cells at 10 uM by radioligand binding assay relative to control; type: cell-based
Cannabinoid receptor 2 [8] = biological target: T2, Cannabinoid receptor 2; assay: Binding affinity to human CB2 receptor stably expressed in HEK cells assessed as inhibition constant by […]; type: cell-based
Cannabinoid receptor 1 [9] = biological target: T1, Cannabinoid receptor 1; assay: Binding affinity to CB1 receptor (unknown origin) assessed as inhibition constant
Cannabinoid receptor 2 [10] = biological target: T2, Cannabinoid receptor 2; assay: Binding affinity to CB2 receptor (unknown origin) assessed as inhibition constant
[11] = biological target: Cholinesterase (Homo sapiens) (UniProt P06276); assay: Inhibition of human BChE at 10 uM relative to control
Cholinesterase (Homo sapiens), sequence (P06276 whole entry): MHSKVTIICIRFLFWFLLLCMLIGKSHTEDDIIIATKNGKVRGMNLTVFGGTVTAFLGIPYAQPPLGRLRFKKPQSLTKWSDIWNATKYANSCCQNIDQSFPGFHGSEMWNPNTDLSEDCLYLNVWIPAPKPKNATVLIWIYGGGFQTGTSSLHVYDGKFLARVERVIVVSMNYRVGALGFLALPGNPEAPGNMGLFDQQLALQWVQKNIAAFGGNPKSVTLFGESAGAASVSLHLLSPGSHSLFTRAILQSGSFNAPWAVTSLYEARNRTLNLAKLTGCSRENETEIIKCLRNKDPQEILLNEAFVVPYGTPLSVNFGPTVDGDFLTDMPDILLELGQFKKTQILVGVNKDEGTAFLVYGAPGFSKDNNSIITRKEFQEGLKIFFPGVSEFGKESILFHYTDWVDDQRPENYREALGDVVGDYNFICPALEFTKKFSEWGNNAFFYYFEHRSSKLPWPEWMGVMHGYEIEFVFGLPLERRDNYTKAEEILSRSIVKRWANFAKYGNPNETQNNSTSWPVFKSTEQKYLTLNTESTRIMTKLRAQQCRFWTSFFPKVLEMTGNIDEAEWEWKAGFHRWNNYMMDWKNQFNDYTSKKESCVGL

T1 sequence (P21554 whole entry): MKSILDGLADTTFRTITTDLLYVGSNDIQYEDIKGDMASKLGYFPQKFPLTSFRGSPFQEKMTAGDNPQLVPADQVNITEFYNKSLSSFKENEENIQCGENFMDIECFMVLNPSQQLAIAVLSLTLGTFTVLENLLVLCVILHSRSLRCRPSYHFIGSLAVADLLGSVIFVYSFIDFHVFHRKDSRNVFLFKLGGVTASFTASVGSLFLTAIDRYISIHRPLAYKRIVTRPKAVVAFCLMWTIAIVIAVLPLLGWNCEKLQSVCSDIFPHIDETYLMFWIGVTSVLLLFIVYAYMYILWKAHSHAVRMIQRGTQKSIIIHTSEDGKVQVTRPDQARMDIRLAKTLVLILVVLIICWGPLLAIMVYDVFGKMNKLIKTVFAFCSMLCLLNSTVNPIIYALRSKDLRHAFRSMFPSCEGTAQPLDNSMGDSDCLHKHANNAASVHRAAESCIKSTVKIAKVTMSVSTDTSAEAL

O=C(c1ccc2ccccc2c1)c1cn2c3c(cccc13)OCC2CN1CCOCC1 (stereo not drawn)
Ki (Cannabinoid receptor 1 [1]): 0.0623 µM
Ki (Cannabinoid receptor 2 [2]): 0.0033 µM

CCOc1ccc(Cc2nc3cc(C(=O)N(CC)CC)ccc3n2CCC(C)C)cc1
Ki (Cannabinoid receptor 1 [3]): > 5 µM

CN1CCCCC1Cn1cc(C(=O)c2cc([N+](=O)[O-])ccc2I)c2ccccc21 (stereo not drawn)
Ki (Cannabinoid receptor 2 [4]): 0.007 µM

CCC(C)(C)c1ccc2c(c1)OC(C)(C)C1CC=C(C)CC21 (stereo not drawn)
Ki (Cannabinoid receptor 1 [5]): 2.29 µM
Ki (Cannabinoid receptor 2 [6]): 0.014 µM

CCOc1ccc(Nc2nc3cc(C(=O)N(CC)CC)ccc3n2CCC(C)C)cc1
Activity (Cannabinoid receptor 1 [7]): 13%
Ki (Cannabinoid receptor 2 [8]): 0.0019 µM

CCCn1c(C)c(C(=O)c2ccc3ccccc3c2)c2ccccc21
Ki (Cannabinoid receptor 1 [9]): 0.383 µM
Ki (Cannabinoid receptor 2 [10]): 0.0138 µM

CCCC(C)(C)c1ccc2c(c1)OC(C)(C)C1CC=C(C)CC21 (stereo not drawn)
Ki (Cannabinoid receptor 1 [5]): 0.677 µM
Ki (Cannabinoid receptor 2 [6]): 0.0034 µM

CCN(CC)C(=O)c1ccc2c(c1)nc(Nc1ccc(Oc3ccccc3)cc1)n2CCC(C)C
inhibition [11]: 2%
